Square brackets hold non-standard residues; d marks the D form. Ends that are not written are not given here. pY = N[C@@H](Cc1ccc(OP(=O)(O)O)cc1)C(=O)O; Met(O) = CS(=O)CC[C@H](N)C(=O)O; pS = N[C@@H](COP(=O)(O)O)C(=O)O
Columns and labels:
[1] = system: unexpanded lymphocyte cultures (CD8^+ T cells); assay: ICS for MHC-I-pP reactivity of lymphocyte cultures without expansion (Table 23, No Expansion); conditions: HH6
[2] = system: CD8^+ T cells (PBMCs); assay: Intracellular cytokine staining (ICS) of PBMCs after 7 days of stimulation with MHC-I-pP (healthy donors, HH patients); format: cell-based, human; conditions: for Reactive CD8^+ T cell population, HH2: HH patient HH2; for Reactive CD8^+ T cell population, HH3: HH patient HH3; for Reactive CD8^+ T cell population, HH6: HH patient HH6; for Reactive CD8^+ T cell population, HH8: HH patient HH8; for Reactive CD8^+ T cell population, HD1: Healthy donor HD1; for Reactive CD8^+ T cell population, HD4: Healthy donor HD4; for Reactive CD8^+ T cell population, HD5: Healthy donor HD5
Procedure, shortened: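 PBMCs or liver lymphocytes from HLA-A*0201-positive healthy donors and hereditary hemochromatosis patients were stimulated for 7 days with HLA-A*0201-restricted phosphopeptides and no added cytokines. After exclusion of doublets and dead cells with a fixable viability dye, CD3^+CD8^+ cells were analysed by intracellular staining for IFN-γ and TNF-α, plus CD107a where needed.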

[3] = system: expanded TIL / IHL cultures; assay: ICS for MHC-I-pP reactivity of liver-derived lymphocyte cultures after unspecific rapid expansion protocol (REP); format: cell-based, human
[4] = system: expanded lymphocyte cultures from deceased donor livers, cirrhotic livers and HCC; assay: ICS for MHC-I-pP reactivity of liver-derived lymphocyte cultures after phosphopeptide-specific expansion; format: cell-based, human; conditions: for ppCTL response, Deceased Donor Liver Do 2 / ppCTL response, Deceased Donor Liver Do 3 / ppCTL response, Deceased Donor Liver Do 4 / ppCTL response, Deceased Donor Liver Do 6 / ppCTL response, End-stage Liver Cirrhosis IHL 11 / ppCTL response, End-stage Liver Cirrhosis IHL 12 / ppCTL response, End-stage Liver Cirrhosis IHL 13 / ppCTL response, End-stage Liver Cirrhosis IHL 15 / ppCTL response, HCC Distal HCC 1 / ppCTL response, HCC Tumor HCC 1 / ppCTL response, HCC Distal HCC 4 / ppCTL response, HCC Distal HCC 9 / ppCTL response, HCC Tumor HCC 9 / ppCTL response, HCC Distal HCC 12: pP-specifically expanded culture; for ppCTL response, HCC Distal HCC 1: HCC 1 Distal; for ppCTL response, HCC Tumor HCC 1: HCC 1 Tumor; for ppCTL response, HCC Distal HCC 4: HCC 4 Distal; for ppCTL response, HCC Distal HCC 9: HCC 9 Distal; for ppCTL response, HCC Tumor HCC 9: HCC 9 Tumor; for ppCTL response, HCC Distal HCC 12: HCC 12 Distal

Substance	Reactive CD8^+ T cells, No Expansion, HH6 [1]	Reactive CD8^+ T cell population, HH2 [2]	Reactive CD8^+ T cell population, HH3 [2]	Reactive CD8^+ T cell population, HH6 [2]	Reactive CD8^+ T cell population, HH8 [2]	Reactive CD8^+ T cell population, HD1 [2]	Reactive CD8^+ T cell population, HD4 [2]	Reactive CD8^+ T cell population, HD5 [2]	Reactive CD8^+ T cells, Non-specific Expansion, Do2 [3]	Reactive CD8^+ T cells, Non-specific Expansion, Do4 [3]	Reactive CD8^+ T cells, Non-specific Expansion, HH6 [3]	Reactive CD8^+ T cells, pP-specific Expansion, Do2 [4]	Reactive CD8^+ T cells, pP-specific Expansion, Do4 [4]	Reactive CD8^+ T cells, pP-specific Expansion, HH6 [4]	ppCTL response, Deceased Donor Liver Do 2 [4]	ppCTL response, Deceased Donor Liver Do 3 [4]	ppCTL response, Deceased Donor Liver Do 4 [4]	ppCTL response, Deceased Donor Liver Do 6 [4]	ppCTL response, End-stage Liver Cirrhosis IHL 11 [4]	ppCTL response, End-stage Liver Cirrhosis IHL 12 [4]	other results
AVVsPPALHNA: BRD4 phosphopeptide, HLA-A*0201 (AVV[pS]PPALHNA; listed as Homo sapiens)	2 (2.5-5.0% reactive CD8^-+ T cells)	0 (<0.25% reactive CD8^-+ T cells)	0 (<0.25% reactive CD8^-+ T cells)	2 (2.5-5.0% reactive CD8^-+ T cells)	0 (<0.25% reactive CD8^-+ T cells)	0 (<0.25% reactive CD8^-+ T cells)	0 (<0.25% reactive CD8^-+ T cells)	0 (<0.25% reactive CD8^-+ T cells)	0 (<0.25% reactive CD8^-+ T cells)	0 (<0.25% reactive CD8^-+ T cells)	0 (<0.25% reactive CD8^-+ T cells)	0 (<0.25% reactive CD8^-+ T cells)	0 (<0.25% reactive CD8^-+ T cells)	2 (2.5-5.0% reactive CD8^-+ T cells)	0 (<0.25% reactive CD8-+ T cells)	0 (<0.25% reactive CD8-+ T cells)	0 (<0.25% reactive CD8-+ T cells)	0 (<0.25% reactive CD8-+ T cells)	0 (<0.25% reactive CD8-+ T cells)	0 (<0.25% reactive CD8-+ T cells)	ppCTL response, End-stage Liver Cirrhosis IHL 13 [4]: 0 (<0.25% reactive CD8-+ T cells); ppCTL response, End-stage Liver Cirrhosis IHL 15 [4]: 0 (<0.25% reactive CD8-+ T cells); ppCTL response, HCC Distal HCC 1 [4]: 0 (<0.25% reactive CD8-+ T cells); ppCTL response, HCC Tumor HCC 1 [4]: 0 (<0.25% reactive CD8-+ T cells); ppCTL response, HCC Distal HCC 4 [4]: 0 (<0.25% reactive CD8-+ T cells); ppCTL response, HCC Distal HCC 9 [4]: 0 (<0.25% reactive CD8-+ T cells); ppCTL response, HCC Tumor HCC 9 [4]: 1 (0.25-2.5% reactive CD8-+ T cells); ppCTL response, HCC Distal HCC 12 [4]: 0 (<0.25% reactive CD8-+ T cells)
ALDsGASLLHL: RIPK4 phosphopeptide, HLA-A*0201 (ALD[pS]GASLLHL; listed as Homo sapiens)	2 (2.5-5.0% reactive CD8^-+ T cells)	0 (<0.25% reactive CD8^-+ T cells)	0 (<0.25% reactive CD8^-+ T cells)	0 (<0.25% reactive CD8^-+ T cells)	0 (<0.25% reactive CD8^-+ T cells)	0 (<0.25% reactive CD8^-+ T cells)	0 (<0.25% reactive CD8^-+ T cells)	0 (<0.25% reactive CD8^-+ T cells)	0 (<0.25% reactive CD8^-+ T cells)	0 (<0.25% reactive CD8^-+ T cells)	0 (<0.25% reactive CD8^-+ T cells)	0 (<0.25% reactive CD8^-+ T cells)	0 (<0.25% reactive CD8^-+ T cells)	2 (2.5-5.0% reactive CD8^-+ T cells)	0 (<0.25% reactive CD8-+ T cells)	0 (<0.25% reactive CD8-+ T cells)	0 (<0.25% reactive CD8-+ T cells)	0 (<0.25% reactive CD8-+ T cells)	0 (<0.25% reactive CD8-+ T cells)	0 (<0.25% reactive CD8-+ T cells)	Reactive CD8^+ T cell population, HH11 ([2]; HH patient HH11): 1 (0.25-2.5% reactive CD8^-+ T cells); ppCTL response, End-stage Liver Cirrhosis IHL 13 [4]: 0 (<0.25% reactive CD8-+ T cells); ppCTL response, End-stage Liver Cirrhosis IHL 15 [4]: 3 (5-7.5% reactive CD8-+ T cells); ppCTL response, HCC Distal HCC 1 [4]: 0 (<0.25% reactive CD8-+ T cells); ppCTL response, HCC Tumor HCC 1 [4]: 0 (<0.25% reactive CD8-+ T cells); ppCTL response, HCC Distal HCC 4 [4]: 0 (<0.25% reactive CD8-+ T cells); ppCTL response, HCC Distal HCC 9 [4]: 0 (<0.25% reactive CD8-+ T cells); ppCTL response, HCC Tumor HCC 9 [4]: 0 (<0.25% reactive CD8-+ T cells); ppCTL response, HCC Distal HCC 12 [4]: 0 (<0.25% reactive CD8-+ T cells)
SImsPEIQL: CIC phosphopeptide, HLA-A*0201 (SI[Met(O)][pS]PEIQL; listed as Homo sapiens)	0 (<0.25% reactive CD8^-+ T cells)	1 (0.25-2.5% reactive CD8^-+ T cells)	0 (<0.25% reactive CD8^-+ T cells)	0 (<0.25% reactive CD8^-+ T cells)	0 (<0.25% reactive CD8^-+ T cells)	0 (<0.25% reactive CD8^-+ T cells)	0 (<0.25% reactive CD8^-+ T cells)	0 (<0.25% reactive CD8^-+ T cells)	0 (<0.25% reactive CD8^-+ T cells)	0 (<0.25% reactive CD8^-+ T cells)	0 (<0.25% reactive CD8^-+ T cells)	0 (<0.25% reactive CD8^-+ T cells)	0 (<0.25% reactive CD8^-+ T cells)	2 (2.5-5.0% reactive CD8^-+ T cells)	0 (<0.25% reactive CD8-+ T cells)	0 (<0.25% reactive CD8-+ T cells)	0 (<0.25% reactive CD8-+ T cells)	0 (<0.25% reactive CD8-+ T cells)	0 (<0.25% reactive CD8-+ T cells)	0 (<0.25% reactive CD8-+ T cells)	ppCTL response, End-stage Liver Cirrhosis IHL 13 [4]: 0 (<0.25% reactive CD8-+ T cells); ppCTL response, End-stage Liver Cirrhosis IHL 15 [4]: 0 (<0.25% reactive CD8-+ T cells); ppCTL response, HCC Distal HCC 1 [4]: 0 (<0.25% reactive CD8-+ T cells); ppCTL response, HCC Tumor HCC 1 [4]: 0 (<0.25% reactive CD8-+ T cells); ppCTL response, HCC Distal HCC 4 [4]: 0 (<0.25% reactive CD8-+ T cells); ppCTL response, HCC Distal HCC 9 [4]: 0 (<0.25% reactive CD8-+ T cells); ppCTL response, HCC Tumor HCC 9 [4]: 0 (<0.25% reactive CD8-+ T cells); ppCTL response, HCC Distal HCC 12 [4]: 0 (<0.25% reactive CD8-+ T cells)
yLQSRYYRA: HIPK3 phosphopeptide, HLA-A*0201 ([pY]LQSRYYRA; listed as Homo sapiens)	1 (0.25-2.5% reactive CD8^-+ T cells)	0 (<0.25% reactive CD8^-+ T cells)	0 (<0.25% reactive CD8^-+ T cells)	1 (0.25-2.5% reactive CD8^-+ T cells)	0 (<0.25% reactive CD8^-+ T cells)	0 (<0.25% reactive CD8^-+ T cells)	0 (<0.25% reactive CD8^-+ T cells)	0 (<0.25% reactive CD8^-+ T cells)	0 (<0.25% reactive CD8^-+ T cells)	0 (<0.25% reactive CD8^-+ T cells)	0 (<0.25% reactive CD8^-+ T cells)	2 (2.5-5.0% reactive CD8^-+ T cells)	0 (<0.25% reactive CD8^-+ T cells)	0 (<0.25% reactive CD8^-+ T cells)	2 (2.5-5.0% reactive CD8-+ T cells)	0 (<0.25% reactive CD8-+ T cells)	0 (<0.25% reactive CD8-+ T cells)	0 (<0.25% reactive CD8-+ T cells)	0 (<0.25% reactive CD8-+ T cells)	0 (<0.25% reactive CD8-+ T cells)	ppCTL response, End-stage Liver Cirrhosis IHL 13 [4]: 0 (<0.25% reactive CD8-+ T cells); ppCTL response, End-stage Liver Cirrhosis IHL 15 [4]: 0 (<0.25% reactive CD8-+ T cells); ppCTL response, HCC Distal HCC 1 [4]: 0 (<0.25% reactive CD8-+ T cells); ppCTL response, HCC Tumor HCC 1 [4]: 0 (<0.25% reactive CD8-+ T cells); ppCTL response, HCC Distal HCC 4 [4]: 0 (<0.25% reactive CD8-+ T cells); ppCTL response, HCC Distal HCC 9 [4]: 0 (<0.25% reactive CD8-+ T cells); ppCTL response, HCC Tumor HCC 9 [4]: 1 (0.25-2.5% reactive CD8-+ T cells); ppCTL response, HCC Distal HCC 12 [4]: 0 (<0.25% reactive CD8-+ T cells)
